Results as given in patent publication US20260193264A1, “BENZOYPARAZINE PYRAZINES AND THEIR USES” (FOGHORN THERAPEUTICS INC., priority 2022, published 2026).

Key:
[1] = target: T1, HiBiT-BRM fusion protein in stable HeLa cell line (Homo sapiens, UniProt P51531); test: HiBiT-BRM cell-based degradation assay (Nano-Glo HiBiT Lytic Detection, 24 h); set-up: DC50: scale not given here; conditions: HeLa HiBiT-BRM cells; for DC50: read-out: BRM HiBit Degradation IC50; for BRM HiBit Degradation Maximum (%): top dose 30 μM
T1 construct: expressed in transfected cells
T1 sequence (P51531 whole entry, the tested form may be a part): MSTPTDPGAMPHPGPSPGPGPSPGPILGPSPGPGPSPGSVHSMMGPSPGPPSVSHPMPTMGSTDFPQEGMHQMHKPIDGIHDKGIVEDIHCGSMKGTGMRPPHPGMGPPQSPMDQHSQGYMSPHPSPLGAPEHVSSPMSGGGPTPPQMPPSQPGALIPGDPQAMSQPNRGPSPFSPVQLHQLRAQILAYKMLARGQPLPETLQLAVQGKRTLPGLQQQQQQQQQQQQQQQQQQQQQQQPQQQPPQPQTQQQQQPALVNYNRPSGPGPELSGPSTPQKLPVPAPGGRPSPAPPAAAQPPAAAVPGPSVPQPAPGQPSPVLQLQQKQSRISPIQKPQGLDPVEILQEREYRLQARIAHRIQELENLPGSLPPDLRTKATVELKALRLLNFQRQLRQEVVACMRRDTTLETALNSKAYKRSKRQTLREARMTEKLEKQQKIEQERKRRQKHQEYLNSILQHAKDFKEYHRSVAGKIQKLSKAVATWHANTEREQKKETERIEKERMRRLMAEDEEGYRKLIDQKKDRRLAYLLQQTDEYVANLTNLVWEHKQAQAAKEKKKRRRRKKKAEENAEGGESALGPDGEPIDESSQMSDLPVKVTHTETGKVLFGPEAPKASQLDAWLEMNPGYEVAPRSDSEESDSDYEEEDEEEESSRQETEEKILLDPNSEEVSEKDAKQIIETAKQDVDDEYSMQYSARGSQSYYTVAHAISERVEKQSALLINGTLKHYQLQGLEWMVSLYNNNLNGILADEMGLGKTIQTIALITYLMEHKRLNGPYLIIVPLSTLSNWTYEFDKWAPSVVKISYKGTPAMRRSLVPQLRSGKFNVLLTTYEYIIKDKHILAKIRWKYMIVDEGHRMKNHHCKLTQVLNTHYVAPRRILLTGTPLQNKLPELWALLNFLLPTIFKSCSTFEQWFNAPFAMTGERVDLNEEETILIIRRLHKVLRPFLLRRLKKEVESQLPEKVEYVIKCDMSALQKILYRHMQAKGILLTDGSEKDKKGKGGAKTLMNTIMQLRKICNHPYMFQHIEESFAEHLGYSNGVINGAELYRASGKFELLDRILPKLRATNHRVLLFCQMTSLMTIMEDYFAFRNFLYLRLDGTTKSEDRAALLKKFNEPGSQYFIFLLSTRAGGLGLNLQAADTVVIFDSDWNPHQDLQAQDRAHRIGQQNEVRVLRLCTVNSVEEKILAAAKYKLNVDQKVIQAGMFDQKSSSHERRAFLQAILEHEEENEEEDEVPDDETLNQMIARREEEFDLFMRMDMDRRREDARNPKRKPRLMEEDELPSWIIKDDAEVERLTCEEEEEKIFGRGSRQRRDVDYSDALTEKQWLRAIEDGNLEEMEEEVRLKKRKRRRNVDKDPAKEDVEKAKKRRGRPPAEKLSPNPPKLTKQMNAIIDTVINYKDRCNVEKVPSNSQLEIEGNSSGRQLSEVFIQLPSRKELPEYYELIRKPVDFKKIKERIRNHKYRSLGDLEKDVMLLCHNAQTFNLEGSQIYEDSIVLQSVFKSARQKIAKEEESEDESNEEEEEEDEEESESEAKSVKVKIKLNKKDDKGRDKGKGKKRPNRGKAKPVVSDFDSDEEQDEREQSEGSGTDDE
Outline: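 Percent degradation was scaled between DMSO-treated cells and cells given 2 μM of a known BRM/BRG1 degrader. Readout was NanoBiT luminescence after lytic detection. HeLa cells stably expressing HiBiT-BRM were dosed for 24 h, 10 points, 3-fold steps from 30 μM final, in duplicate.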

[2] = target: T2, HiBit-BRG1 fusion protein in stable HeLa cell line expressing HiBit-BRG1 and LgBit (Homo sapiens, UniProt P51532); test: HiBiT-BRG1 cell-based degradation assay (Nano-Glo HiBiT, 24 h); conditions: HeLa HiBit-BRG1/LgBit cells; for DC50: read-out: BRMG1 HiBit Degradation IC50; for Dmax: top dose 30 μM, read-out: BRG1 HiBit Degradation Maximum (%)
T2 construct: expressed in transfected cells
T2 sequence (P51532 whole entry, the tested form may be a part): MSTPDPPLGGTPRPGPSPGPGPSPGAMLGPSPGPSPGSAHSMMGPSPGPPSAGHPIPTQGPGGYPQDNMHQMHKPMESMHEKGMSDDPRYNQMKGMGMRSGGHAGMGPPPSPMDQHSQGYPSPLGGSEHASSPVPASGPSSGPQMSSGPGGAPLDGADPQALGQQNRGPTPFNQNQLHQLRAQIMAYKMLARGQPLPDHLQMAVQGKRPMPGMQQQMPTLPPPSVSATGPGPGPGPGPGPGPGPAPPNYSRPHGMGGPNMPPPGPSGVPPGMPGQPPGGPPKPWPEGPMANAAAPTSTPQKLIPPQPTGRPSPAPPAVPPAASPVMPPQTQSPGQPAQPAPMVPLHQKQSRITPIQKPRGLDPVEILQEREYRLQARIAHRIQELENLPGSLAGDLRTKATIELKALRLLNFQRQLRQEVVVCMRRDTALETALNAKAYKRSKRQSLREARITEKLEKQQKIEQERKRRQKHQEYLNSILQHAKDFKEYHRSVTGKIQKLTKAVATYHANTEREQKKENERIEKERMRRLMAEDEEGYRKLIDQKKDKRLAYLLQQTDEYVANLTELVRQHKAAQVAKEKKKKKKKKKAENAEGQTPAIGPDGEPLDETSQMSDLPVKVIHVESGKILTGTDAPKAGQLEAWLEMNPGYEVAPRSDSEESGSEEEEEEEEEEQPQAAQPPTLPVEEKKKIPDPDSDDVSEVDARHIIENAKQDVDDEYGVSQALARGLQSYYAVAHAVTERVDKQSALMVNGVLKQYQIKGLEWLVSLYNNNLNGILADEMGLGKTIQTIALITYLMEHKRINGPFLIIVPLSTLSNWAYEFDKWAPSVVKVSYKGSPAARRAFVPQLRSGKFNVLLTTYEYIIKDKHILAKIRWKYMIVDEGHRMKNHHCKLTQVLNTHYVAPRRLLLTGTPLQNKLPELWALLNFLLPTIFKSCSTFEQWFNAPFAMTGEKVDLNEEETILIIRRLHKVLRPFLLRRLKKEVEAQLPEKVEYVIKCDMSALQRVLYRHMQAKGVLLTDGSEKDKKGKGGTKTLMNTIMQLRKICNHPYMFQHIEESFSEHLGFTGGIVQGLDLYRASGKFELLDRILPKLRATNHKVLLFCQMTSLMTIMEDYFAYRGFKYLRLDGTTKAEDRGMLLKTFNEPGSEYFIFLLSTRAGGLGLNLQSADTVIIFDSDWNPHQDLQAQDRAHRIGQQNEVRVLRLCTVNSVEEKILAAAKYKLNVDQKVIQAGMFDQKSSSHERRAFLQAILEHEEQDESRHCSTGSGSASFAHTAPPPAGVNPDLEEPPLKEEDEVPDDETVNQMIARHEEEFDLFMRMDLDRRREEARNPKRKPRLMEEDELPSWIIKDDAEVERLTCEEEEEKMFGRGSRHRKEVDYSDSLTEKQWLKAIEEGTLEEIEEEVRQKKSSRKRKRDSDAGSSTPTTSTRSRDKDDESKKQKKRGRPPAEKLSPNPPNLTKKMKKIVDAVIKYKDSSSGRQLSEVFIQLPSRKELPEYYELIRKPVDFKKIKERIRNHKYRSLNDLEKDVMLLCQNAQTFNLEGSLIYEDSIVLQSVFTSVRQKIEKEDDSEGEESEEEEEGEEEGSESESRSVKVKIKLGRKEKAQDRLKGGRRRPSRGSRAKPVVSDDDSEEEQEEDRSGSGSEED
Outline: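 Degradation calculated from NanoBiT luminescence relative to DMSO-treated cells (high) and cells given 2 μM known BRM/BRG1 degrader (low). HeLa cells stably expressing HiBiT-BRG1 plus LgBiT were exposed to compound for 24 h before lytic HiBiT detection.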

Row | SMILES | DC50 [1] [µM] | DC50 [2] [µM] | Dmax [2] [%] | BRM HiBit Degradation Maximum (%) [1]
1 | Cc1ncsc1-c1ccc([C@H](C)NC(=O)[C@@H]2C[C@@H](O)CN2C(=O)[C@@H](c2cc(N3CCC4(CCC(c5ccc6cc(-c7ccccc7O)nnc6c5)CC4)CC3)no2)C(C)C)cc1 [Compound 96, (2S,4R)-4-hydroxy-1-((R)-2-(3-(9-(3-(2-hydroxyphenyl)cinnolin-7-yl)-3-azaspiro[5.5]undecan-3-yl)isoxazol-5-yl)-3-methylbutanoyl)-N-((S)-1-(4-(4-methylthiazol-5-yl)phenyl)ethyl)pyrrolidine-2-carboxamide] | < 0.01 | > 0.01 | > 75 | A (“A” indicates maximum degradation ≥75%)
2 | Cc1ncsc1-c1ccc([C@H](C)NC(=O)[C@@H]2C[C@@H](O)CN2C(=O)[C@@H](c2cc(-c3ccc4nnc(-c5ccccc5O)cc4c3)no2)C(C)C)cc1 [Compound 97, (2S,4R)-4-hydroxy-1-[(2R)-2-{3-[3-(2-hydroxyphenyl)cinnolin-6-yl]-1,2-oxazol-5-yl}-3-methylbutanoyl]-N-[(1S)-1-[4-(4-methyl-1,3-thiazol-5-yl)phenyl]ethyl]pyrrolidine-2-carboxamide] | < 0.01 | < 0.01 | > 75 | A (“A” indicates maximum degradation ≥75%)
3 | Cc1ncsc1-c1ccc([C@H](C)NC(=O)[C@@H]2C[C@@H](O)CN2C(=O)[C@@H](c2cc(N3CC[C@@]4(CCN(c5ccc6cc(-c7ccccc7O)nnc6c5)C4)C3)no2)C(C)C)cc1 [Compound 99, (2S,4R)-4-hydroxy-1-((R)-2-(3-((R)-7-(3-(2-hydroxyphenyl)cinnolin-7-yl)-2,7-diazaspiro[4.4]nonan-2-yl)isoxazol-5-yl)-3-methylbutanoyl)-N-((S)-1-(4-(4-methylthiazol-5-yl)phenyl)ethyl)pyrrolidine-2-carboxamide] | < 0.01 | < 0.01 | > 75 | A (“A” indicates maximum degradation ≥75%)
4 | Cc1ncsc1-c1ccc([C@H](C)NC(=O)[C@@H]2C[C@@H](O)CN2C(=O)[C@@H](c2cc(N3CC4(CCN4c4ccc5nnc(-c6ccccc6O)cc5c4)C3)no2)C(C)C)cc1 [Compound 102, (2S,4R)-4-hydroxy-1-((R)-2-(3-(1-(3-(2-hydroxyphenyl)cinnolin-6-yl)-1,6-diazaspiro[3.3]heptan-6-yl)isoxazol-5-yl)-3-methylbutanoyl)-N-((S)-1-(4-(4-methylthiazol-5-yl)phenyl)ethyl)pyrrolidine-2-carboxamide] | < 0.01 | – | < 50 | A (“A” indicates maximum degradation ≥75%)
5 | Cc1ncsc1-c1ccc([C@H](C)NC(=O)[C@@H]2C[C@@H](O)CN2C(=O)[C@@H](c2cc(N3CCC4(CC3)CCN(c3ccc5cc(-c6ccccc6O)nnc5c3)C4=O)no2)C(C)C)cc1 [Compound 104, (2S,4R)-4-hydroxy-1-((R)-2-(3-(2-(3-(2-hydroxyphenyl)cinnolin-7-yl)-1-oxo-2,8-diazaspiro[4.5]decan-8-yl)isoxazol-5-yl)-3-methylbutanoyl)-N-((S)-1-(4-(4-methylthiazol-5-yl)phenyl)ethyl)pyrrolidine-2-carboxamide] | < 0.01 | – | < 50 | A (“A” indicates maximum degradation ≥75%)
6 | Cc1ncsc1-c1ccc([C@H](C)NC(=O)[C@@H]2C[C@@H](O)CN2C(=O)[C@@H](c2cc(N3CC4(CCN(c5ccc6cc(-c7ccccc7O)nnc6c5)CC4(F)F)C3)no2)C(C)C)cc1 [Compound 105, (2S,4R)-1-((R)-2-(3-(5,5-difluoro-7-(3-(2-hydroxyphenyl)cinnolin-7-yl)-2,7-diazaspiro[3.5]nonan-2-yl)isoxazol-5-yl)-3-methylbutanoyl)-4-hydroxy-N-((S)-1-(4-(4-methylthiazol-5-yl)phenyl)ethyl)pyrrolidine-2-carboxamide] | < 0.01 | < 0.01 | > 75 | A (“A” indicates maximum degradation ≥75%)
7 | Cc1ncsc1-c1ccc([C@H](C)NC(=O)[C@@H]2C[C@@H](O)CN2C(=O)[C@@H](c2cc(N3CCC4(CCN(c5ccc6cc(-c7ccccc7O)nnc6c5)CC4)CC3)no2)C(C)C)cc1 [Compound 106, (2S,4R)-4-hydroxy-1-((R)-2-(3-(9-(3-(2-hydroxyphenyl)cinnolin-7-yl)-3,9-diazaspiro [5.5]undecan-3-yl)isoxazol-5-yl)-3-methylbutanoyl)-N-((S)-1-(4-(4-methylthiazol-5-yl)phenyl)ethyl)pyrrolidine-2-carboxamide] | < 0.01 | < 0.01 | > 75 | A (“A” indicates maximum degradation ≥75%)
8 | Cc1ncsc1-c1ccc([C@H](C)NC(=O)[C@@H]2C[C@@H](O)CN2C(=O)[C@@H](c2cc(N3CCN([C@@H]4CCN(c5ccc6cc(-c7ccccc7O)nnc6c5)CC4(F)F)CC3)no2)C(C)C)cc1 [Compound 107, (2S,4R)-1-((R)-2-(3-(4-((R)-3,3-difluoro-1-(3-(2-hydroxyphenyl)cinnolin-7-yl)piperidin-4-yl)piperazin-1-yl)isoxazol-5-yl)-3-methylbutanoyl)-4-hydroxy-N-((S)-1-(4-(4-methylthiazol-5-yl)phenyl)ethyl)pyrrolidine-2-carboxamide] | < 0.01 | < 0.01 | > 75 | A (“A” indicates maximum degradation ≥75%)
9 | Cc1ncsc1-c1ccc([C@H](C)NC(=O)[C@@H]2C[C@@H](O)CN2C(=O)C(c2cc(N3CCC4(CN(c5ccc6cc(-c7ccccc7O)nnc6c5)C4)C(F)(F)C3)no2)C(C)C)cc1 (stereo partly drawn) [Compound 108, (2S,4R)-1-(2-(3-(5,5-difluoro-2-(3-(2-hydroxyphenyl)cinnolin-7-yl)-2,7-diazaspiro [3.5]nonan-7-yl)isoxazol-5-yl)-3-methylbutanoyl)-4-hydroxy-N-((S)-1-(4-(4-methylthiazol-5-yl)phenyl)ethyl)pyrrolidine-2-carboxamide] | < 0.01 | > 0.01 | > 75 | A (“A” indicates maximum degradation ≥75%)
10 | CC(C)[C@@H](C(=O)N1C[C@H](O)C[C@H]1C(=O)N[C@@H](C)c1ccc(Br)cc1)c1cc(N2CC3(CN(c4ccc5cc(-c6ccccc6O)nnc5c4)C3)C2)no1 [Compound 109, (2S,4R)-N-((S)-1-(4-bromophenyl)ethyl)-4-hydroxy-1-((R)-2-(3-(6-(3-(2-hydroxyphenyl)cinnolin-7-yl)-2,6-diazaspiro[3.3]heptan-2-yl)isoxazol-5-yl)-3-methylbutanoyl)pyrrolidine-2-carboxamide] | < 0.01 | – | < 50 | A (“A” indicates maximum degradation ≥75%)

Second part, led by results:

Row | DC50 [1] [µM] | DC50 [2] [µM] | Dmax [2] [%] | SMILES | BRM HiBit Degradation Maximum (%) [1]
11 | < 0.01 | > 0.01 | > 75 | Cc1ncsc1-c1ccc([C@H](C)NC(=O)[C@@H]2C[C@@H](O)CN2C(=O)[C@@H](c2cc(N3CCC4(CCN(c5ccc6nnc(-c7ccccc7O)cc6c5)C4)C3)no2)C(C)C)cc1 (stereo partly drawn) [Compound 98, (2S,4R)-4-hydroxy-1-((2R)-2-(3-(7-(3-(2-hydroxyphenyl)cinnolin-6-yl)-2,7-diazaspiro[4.4]nonan-2-yl)isoxazol-5-yl)-3-methylbutanoyl)-N-((S)-1-(4-(4-methylthiazol-5-yl)phenyl)ethyl)pyrrolidine-2-carboxamide] | A (“A” indicates maximum degradation ≥75%)
12 | > 0.01 | – | < 50 | Cc1ncsc1-c1ccc([C@H](C)NC(=O)[C@@H]2C[C@@H](O)CN2C(=O)[C@@H](c2cc(N3CC4(CCN4c4ccc5cc(-c6ccccc6O)nnc5c4)C3)no2)C(C)C)cc1 [Compound 100, (2S,4R)-4-hydroxy-1-((R)-2-(3-(1-(3-(2-hydroxyphenyl)cinnolin-7-yl)-1,6-diazaspiro[3.3]heptan-6-yl)isoxazol-5-yl)-3-methylbutanoyl)-N-((S)-1-(4-(4-methylthiazol-5-yl)phenyl)ethyl)pyrrolidine-2-carboxamide] | B (“B” indicates maximum degradation ≥50%)
13 | > 0.01 | – | < 50 | Cc1ncsc1-c1ccc([C@H](C)NC(=O)[C@@H]2C[C@@H](O)CN2C(=O)[C@@H](c2cc(N3CCC[C@@H](c4ccc5nnc(-c6ccccc6O)cc5c4)C3)no2)C(C)C)cc1 [Compound 101, (2S,4R)-4-hydroxy-1-((R)-2-(3-((S)-3-(3-(2-hydroxyphenyl)cinnolin-6-yl)piperidin-1-yl)isoxazol-5-yl)-3-methylbutanoyl)-N-((S)-1-(4-(4-methylthiazol-5-yl)phenyl)ethyl)pyrrolidine-2-carboxamide] | A (“A” indicates maximum degradation ≥75%)
14 | < 0.01 | – | < 50 | Cc1ncsc1-c1ccc([C@H](C)NC(=O)[C@@H]2C[C@@H](O)CN2C(=O)[C@@H](c2cc(N3CCC4(CC3)CCN(c3ccc5cc(-c6ccccc6O)nnc5c3)C(=O)C4)no2)C(C)C)cc1 [Compound 103, (2S,4R)-4-hydroxy-1-((R)-2-(3-(9-(3-(2-hydroxyphenyl)cinnolin-7-yl)-8-oxo-3,9-diazaspiro[5.5]undecan-3-yl)isoxazol-5-yl)-3-methylbutanoyl)-N-((S)-1-(4-(4-methylthiazol-5-yl)phenyl)ethyl)pyrrolidine-2-carboxamide] | A (“A” indicates maximum degradation ≥75%)
